The Ki is a dissociation constant, usually derived from enzyme kinetics or from competition with a known ligand. For orientation: AC50 means the midpoint of the concentration-response curve, whichever way the signal moves.

“And” between values parts separate entries of the source, which are not always exact repeats. Identical values can stand only once. The source made the active and inactive calls. Where only a bound is given, the exact number is not on record here.

The values that follow come from ChEMBL document CHEMBL1201862, “PubChem BioAssay data set” (2004).

Assay [1] has as its target ALK tyrosine kinase receptor (Homo sapiens, UniProt Q9UM73). It is filed as functional.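 Further: ALK tested as one member of a kinase panel screen.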
The target in assay [2] is Cyclin-dependent kinase 19 (Homo sapiens, UniProt Q9BWU1). The experiment in a line: Navigating the Kinome. Panel member name: CDC2L6. It is filed as functional.
Sequence of Cyclin-dependent kinase 19 (Q9BWU1 whole entry): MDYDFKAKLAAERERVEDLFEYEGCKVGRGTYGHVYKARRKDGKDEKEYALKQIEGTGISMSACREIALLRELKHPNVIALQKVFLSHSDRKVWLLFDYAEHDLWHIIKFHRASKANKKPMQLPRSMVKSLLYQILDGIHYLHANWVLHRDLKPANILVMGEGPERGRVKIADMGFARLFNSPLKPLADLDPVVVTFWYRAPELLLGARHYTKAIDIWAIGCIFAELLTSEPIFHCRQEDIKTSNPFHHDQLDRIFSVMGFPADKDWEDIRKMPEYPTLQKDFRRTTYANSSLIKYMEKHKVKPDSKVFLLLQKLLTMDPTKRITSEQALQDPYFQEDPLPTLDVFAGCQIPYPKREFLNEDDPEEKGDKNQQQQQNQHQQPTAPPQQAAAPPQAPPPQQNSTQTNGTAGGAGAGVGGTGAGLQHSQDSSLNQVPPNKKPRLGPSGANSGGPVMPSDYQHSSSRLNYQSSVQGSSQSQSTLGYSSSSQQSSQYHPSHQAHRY
Assay [3] concerns the target T1, Heat shock factor protein 1 (Mus musculus, UniProt P38532).
T1 sequence (P38532 whole entry): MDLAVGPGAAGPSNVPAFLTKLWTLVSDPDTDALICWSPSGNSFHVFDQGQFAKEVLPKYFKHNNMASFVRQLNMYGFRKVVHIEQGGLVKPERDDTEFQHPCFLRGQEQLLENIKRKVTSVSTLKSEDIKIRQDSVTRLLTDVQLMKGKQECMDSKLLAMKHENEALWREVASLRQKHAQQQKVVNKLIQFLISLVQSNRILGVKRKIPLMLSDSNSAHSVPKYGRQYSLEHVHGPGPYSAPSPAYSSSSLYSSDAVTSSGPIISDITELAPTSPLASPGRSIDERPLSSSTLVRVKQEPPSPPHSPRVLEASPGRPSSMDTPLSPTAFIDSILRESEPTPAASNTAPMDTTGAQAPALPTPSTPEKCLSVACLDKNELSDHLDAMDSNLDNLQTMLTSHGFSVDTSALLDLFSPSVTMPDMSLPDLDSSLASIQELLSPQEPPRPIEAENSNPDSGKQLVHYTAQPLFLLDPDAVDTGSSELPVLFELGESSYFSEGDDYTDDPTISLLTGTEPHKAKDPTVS
Kind of assay: enhancement of HSF1-driven luciferase signal – cell-based, NIH3T3, luminescence, dose retest, confirmation (AID 435004).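 Further: stress induced by proteasome inhibitor MG132 added 30 min after compound; luciferase reporter driven by HSF1 response element in NIH3T3 cells; actives raise luminescence as potentiators of the MG132 stress response.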 It is filed as functional.

The target of assay [4] is Botulinum neurotoxin type A (Clostridium botulinum (strain Hall / ATCC 3502 / NCTC 13319 / Type A), UniProt P0DPI1). Kind of assay: High-throughput multiplex microsphere dose response for inhibitors of toxin protease, specifically Botulinum neurotoxin light chain A protease, compounds from Cherry Pick 01. It is filed as functional. The note with it: read-out: EC50_MICROM.
Sequence of Botulinum neurotoxin type A (P0DPI1 2-448 limits assumed): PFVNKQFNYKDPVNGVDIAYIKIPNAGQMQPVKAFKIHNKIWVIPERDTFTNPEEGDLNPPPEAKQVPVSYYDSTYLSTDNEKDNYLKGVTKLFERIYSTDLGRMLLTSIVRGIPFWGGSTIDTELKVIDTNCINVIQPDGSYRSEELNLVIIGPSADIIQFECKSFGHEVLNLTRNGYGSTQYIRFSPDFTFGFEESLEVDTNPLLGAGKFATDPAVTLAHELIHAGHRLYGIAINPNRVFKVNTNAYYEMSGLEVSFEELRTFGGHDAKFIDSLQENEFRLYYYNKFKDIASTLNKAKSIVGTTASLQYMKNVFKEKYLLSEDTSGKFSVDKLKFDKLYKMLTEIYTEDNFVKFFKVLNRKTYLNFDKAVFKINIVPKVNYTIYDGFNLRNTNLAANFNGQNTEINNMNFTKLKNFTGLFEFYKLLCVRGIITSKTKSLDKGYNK

Assay [5] addresses T2, Apoptotic protease-activating factor 1 (Homo sapiens, UniProt O14727).
T2 sequence (O14727 whole entry): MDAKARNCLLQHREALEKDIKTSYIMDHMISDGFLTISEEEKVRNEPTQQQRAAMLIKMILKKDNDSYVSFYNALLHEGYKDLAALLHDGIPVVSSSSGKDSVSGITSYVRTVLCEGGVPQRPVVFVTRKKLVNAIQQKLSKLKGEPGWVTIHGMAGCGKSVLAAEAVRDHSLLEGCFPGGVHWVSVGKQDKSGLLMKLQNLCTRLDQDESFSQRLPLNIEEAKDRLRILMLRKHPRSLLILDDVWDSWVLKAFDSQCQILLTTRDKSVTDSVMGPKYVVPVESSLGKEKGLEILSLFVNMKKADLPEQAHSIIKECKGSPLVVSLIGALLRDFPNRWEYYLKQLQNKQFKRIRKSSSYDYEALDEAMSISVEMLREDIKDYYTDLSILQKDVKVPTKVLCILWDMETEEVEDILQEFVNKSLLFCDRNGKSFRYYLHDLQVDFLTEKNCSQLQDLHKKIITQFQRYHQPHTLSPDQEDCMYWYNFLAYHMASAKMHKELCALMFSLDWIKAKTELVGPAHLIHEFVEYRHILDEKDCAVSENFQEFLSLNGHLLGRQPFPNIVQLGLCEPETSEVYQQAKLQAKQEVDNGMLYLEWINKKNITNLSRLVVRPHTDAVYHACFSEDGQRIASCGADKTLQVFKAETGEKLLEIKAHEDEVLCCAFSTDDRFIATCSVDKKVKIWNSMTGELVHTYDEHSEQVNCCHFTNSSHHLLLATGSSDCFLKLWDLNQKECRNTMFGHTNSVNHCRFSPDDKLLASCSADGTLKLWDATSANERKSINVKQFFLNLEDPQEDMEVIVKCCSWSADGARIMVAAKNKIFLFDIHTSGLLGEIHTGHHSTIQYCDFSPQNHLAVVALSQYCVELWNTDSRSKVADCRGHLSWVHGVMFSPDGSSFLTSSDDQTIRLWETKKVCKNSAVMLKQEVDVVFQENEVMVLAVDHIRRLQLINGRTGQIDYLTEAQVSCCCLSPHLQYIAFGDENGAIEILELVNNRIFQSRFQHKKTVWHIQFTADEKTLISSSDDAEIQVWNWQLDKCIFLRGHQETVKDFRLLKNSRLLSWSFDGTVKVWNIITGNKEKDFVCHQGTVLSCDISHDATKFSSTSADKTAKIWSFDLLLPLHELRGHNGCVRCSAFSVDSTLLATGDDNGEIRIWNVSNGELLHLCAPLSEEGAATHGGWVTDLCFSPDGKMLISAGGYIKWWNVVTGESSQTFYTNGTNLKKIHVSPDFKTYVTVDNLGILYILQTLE
The experiment in a line: SAR analysis of small molecule inhibitors of Apaf-1 in a Fluorescent assay. It is filed as functional. Conditions: read-out: IC50_Mean.

The target of assay [6] is Sphingosine 1-phosphate receptor 2 (Homo sapiens, UniProt O95136). The experiment in a line: Late-stage fluorescence-based dose-response cell-based counterscreen assay to identify agonists of the Sphingosine 1-Phosphate Receptor 3 (S1P3): Sphingosine 1-Phosphate Receptor 2 (S1P2) agonist assay. It is filed as functional. For orientation: The purpose of a counterscreen is to sort out artefacts and off-target activity.
Sequence of Sphingosine 1-phosphate receptor 2 (O95136 whole entry): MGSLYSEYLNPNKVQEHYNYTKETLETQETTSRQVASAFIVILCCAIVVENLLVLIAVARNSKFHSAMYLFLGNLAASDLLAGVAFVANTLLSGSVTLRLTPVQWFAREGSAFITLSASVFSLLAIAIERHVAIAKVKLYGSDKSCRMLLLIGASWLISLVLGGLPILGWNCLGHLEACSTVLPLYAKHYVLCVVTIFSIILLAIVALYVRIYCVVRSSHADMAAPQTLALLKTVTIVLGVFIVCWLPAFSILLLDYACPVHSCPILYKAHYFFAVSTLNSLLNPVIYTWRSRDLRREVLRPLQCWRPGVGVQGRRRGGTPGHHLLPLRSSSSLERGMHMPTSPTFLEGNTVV

Assay [7] concerns the target T3, Sphingosine 1-phosphate receptor 4 (Homo sapiens, UniProt O95977).
T3 sequence (O95977 whole entry): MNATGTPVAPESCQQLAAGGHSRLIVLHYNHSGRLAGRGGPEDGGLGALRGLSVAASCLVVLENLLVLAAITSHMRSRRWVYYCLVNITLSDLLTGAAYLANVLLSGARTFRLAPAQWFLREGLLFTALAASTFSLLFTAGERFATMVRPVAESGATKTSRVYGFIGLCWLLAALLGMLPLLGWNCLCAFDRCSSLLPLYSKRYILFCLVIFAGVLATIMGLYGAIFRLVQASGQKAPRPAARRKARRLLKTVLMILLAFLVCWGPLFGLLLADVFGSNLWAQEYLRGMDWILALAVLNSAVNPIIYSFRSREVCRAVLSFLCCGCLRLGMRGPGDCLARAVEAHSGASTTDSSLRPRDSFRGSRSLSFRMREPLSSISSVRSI
The experiment in a line: Late-stage fluorescence-based dose-response cell-based counterscreen assay to identify agonists of the Sphingosine 1-Phosphate Receptor 3 (S1P3): Sphingosine 1-Phosphate Receptor 4 (S1P4) agonist assay. It is filed as functional.

The nature of assay [8]: Vero cell cytotoxicity, cytotoxicity control for M. tuberculosis inhibitor project, purified and synthesized samples, set 3 (AID 504684). Conditions: […]. It is filed as functional.
Assay [9] can be described thus: A Cell Based Secondary Assay to Explore Cytotoxicity in THP-1 Cells of Compounds that Modulate Mycobacterium tuberculosis in Media Containing Glycerol versus Media without Glycerol (2). It is filed as functional.
Assay [10] is described as follows: THP-1 cell cytotoxicity, dose response, cytotoxicity control for non-replicating M. tuberculosis project (AID 489025). It is filed as functional.
The subject of assay [11] is Streptococcus sp. 'group A'. Kind of assay: Streptococcus pyogenes SK(-)GAS viability under kanamycin – luminescence, BacTiterGlo, confirmation, counter-screen for streptokinase expression inhibitor project, dose response (AID 1900). It is filed as functional, organism-based.
The target in assay [12] is C-C chemokine receptor type 6 (Homo sapiens, UniProt P51684). The experiment in a line: antagonism of CCR6 beta-arrestin recruitment – cell-based, luminescent beta-arrestin readout, dose response (AID 504728). It is filed as functional. (In general: Arrestin recruitment assays detect the binding of arrestin to an activated receptor.)
Sequence of C-C chemokine receptor type 6 (P51684 whole entry): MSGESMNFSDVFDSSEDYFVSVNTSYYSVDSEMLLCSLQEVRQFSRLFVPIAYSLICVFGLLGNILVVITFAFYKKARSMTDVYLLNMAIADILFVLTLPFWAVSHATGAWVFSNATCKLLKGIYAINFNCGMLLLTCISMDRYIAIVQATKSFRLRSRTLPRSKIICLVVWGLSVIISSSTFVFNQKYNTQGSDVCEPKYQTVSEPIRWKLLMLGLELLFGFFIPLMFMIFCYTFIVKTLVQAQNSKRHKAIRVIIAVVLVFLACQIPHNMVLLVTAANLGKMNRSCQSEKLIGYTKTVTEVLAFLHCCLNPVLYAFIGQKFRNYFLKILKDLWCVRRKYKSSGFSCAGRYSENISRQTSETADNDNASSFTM
The nature of assay [13]: HepG2 cell cytotoxicity, dose response, cytotoxicity control for non-replicating M. tuberculosis project (AID 489018). It is filed as functional. The note with it: Mycobacterium tuberculosis.
Assay [14] is described as follows: Vero E6 cell cytotoxicity, dose response, cytotoxicity control for non-replicating M. tuberculosis project, secondary assay (AID 492998). It is filed as functional, VeroE6. Conditions: Vero C1008.
A further assay concerns the target T4, Streptokinase A (Streptococcus pyogenes serotype M1, UniProt P10520).
T4 sequence (P10520 whole entry): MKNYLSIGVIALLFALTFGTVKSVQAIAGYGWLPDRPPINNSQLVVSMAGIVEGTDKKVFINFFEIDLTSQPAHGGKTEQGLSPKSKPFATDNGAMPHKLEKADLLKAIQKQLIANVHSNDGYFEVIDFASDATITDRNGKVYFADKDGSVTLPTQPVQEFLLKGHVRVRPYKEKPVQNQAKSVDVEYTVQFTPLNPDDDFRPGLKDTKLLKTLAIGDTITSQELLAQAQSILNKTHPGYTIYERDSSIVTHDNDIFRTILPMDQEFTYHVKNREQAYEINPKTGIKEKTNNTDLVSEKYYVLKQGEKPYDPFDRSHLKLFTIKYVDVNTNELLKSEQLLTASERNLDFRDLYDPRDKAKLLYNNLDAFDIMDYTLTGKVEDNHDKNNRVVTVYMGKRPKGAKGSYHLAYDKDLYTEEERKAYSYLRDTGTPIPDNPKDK
The experiment in a line: viability-normalized secreted streptokinase activity reduction – plasminogen activation absorbance, OD405, dose response (AID 1914).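 Further: secreted streptokinase activity via plasminogen activation per viability signal from cell pellet.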 It is filed as functional, Streptococcus pyogenes M1 GAS.

The next assay can be described thus: cells. It is filed as functional.
The next assay concerns the target Beta-galactosidase (Escherichia coli, UniProt Q8VNN2). Kind of assay: detection-enzyme interference by beta-gal modulators – biochemical, E. coli enzyme, set 3, artefact control for CCR6 antagonist project, dose response (AID 504712). It is filed as functional.
The test system of the next assay is Streptococcus. The experiment in a line: GAS UMAA2166 growth inhibition – luminescence, BacTiterGlo, counter-screen for streptokinase expression inhibitor project, dose response (AID 1915).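 Further: potency for reduction of bacterial viability or growth.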 It is filed as functional, organism-based.
Assay [15] in a line: microbe, parasite or virus in culture. It is filed as functional. Conditions: Mycobacterium tuberculosis.
A short description of assay [16]: A Cell Based Secondary Assay to Explore Cytotoxicity in HepG2 Cells of Compounds that Modulate Mycobacterium tuberculosis in Media Containing Glycerol versus Media without Glycerol (2). It is filed as functional.
Assay [17] addresses Protein disulfide-isomerase (Homo sapiens, UniProt P07237). The experiment in a line: inhibition of PDI-driven insulin aggregation – biochemical, turbidity, absorbance, cherry-picked samples, dose response (AID 602350). It is filed as functional.

Sequence of ALK tyrosine kinase receptor (Q9UM73 whole entry): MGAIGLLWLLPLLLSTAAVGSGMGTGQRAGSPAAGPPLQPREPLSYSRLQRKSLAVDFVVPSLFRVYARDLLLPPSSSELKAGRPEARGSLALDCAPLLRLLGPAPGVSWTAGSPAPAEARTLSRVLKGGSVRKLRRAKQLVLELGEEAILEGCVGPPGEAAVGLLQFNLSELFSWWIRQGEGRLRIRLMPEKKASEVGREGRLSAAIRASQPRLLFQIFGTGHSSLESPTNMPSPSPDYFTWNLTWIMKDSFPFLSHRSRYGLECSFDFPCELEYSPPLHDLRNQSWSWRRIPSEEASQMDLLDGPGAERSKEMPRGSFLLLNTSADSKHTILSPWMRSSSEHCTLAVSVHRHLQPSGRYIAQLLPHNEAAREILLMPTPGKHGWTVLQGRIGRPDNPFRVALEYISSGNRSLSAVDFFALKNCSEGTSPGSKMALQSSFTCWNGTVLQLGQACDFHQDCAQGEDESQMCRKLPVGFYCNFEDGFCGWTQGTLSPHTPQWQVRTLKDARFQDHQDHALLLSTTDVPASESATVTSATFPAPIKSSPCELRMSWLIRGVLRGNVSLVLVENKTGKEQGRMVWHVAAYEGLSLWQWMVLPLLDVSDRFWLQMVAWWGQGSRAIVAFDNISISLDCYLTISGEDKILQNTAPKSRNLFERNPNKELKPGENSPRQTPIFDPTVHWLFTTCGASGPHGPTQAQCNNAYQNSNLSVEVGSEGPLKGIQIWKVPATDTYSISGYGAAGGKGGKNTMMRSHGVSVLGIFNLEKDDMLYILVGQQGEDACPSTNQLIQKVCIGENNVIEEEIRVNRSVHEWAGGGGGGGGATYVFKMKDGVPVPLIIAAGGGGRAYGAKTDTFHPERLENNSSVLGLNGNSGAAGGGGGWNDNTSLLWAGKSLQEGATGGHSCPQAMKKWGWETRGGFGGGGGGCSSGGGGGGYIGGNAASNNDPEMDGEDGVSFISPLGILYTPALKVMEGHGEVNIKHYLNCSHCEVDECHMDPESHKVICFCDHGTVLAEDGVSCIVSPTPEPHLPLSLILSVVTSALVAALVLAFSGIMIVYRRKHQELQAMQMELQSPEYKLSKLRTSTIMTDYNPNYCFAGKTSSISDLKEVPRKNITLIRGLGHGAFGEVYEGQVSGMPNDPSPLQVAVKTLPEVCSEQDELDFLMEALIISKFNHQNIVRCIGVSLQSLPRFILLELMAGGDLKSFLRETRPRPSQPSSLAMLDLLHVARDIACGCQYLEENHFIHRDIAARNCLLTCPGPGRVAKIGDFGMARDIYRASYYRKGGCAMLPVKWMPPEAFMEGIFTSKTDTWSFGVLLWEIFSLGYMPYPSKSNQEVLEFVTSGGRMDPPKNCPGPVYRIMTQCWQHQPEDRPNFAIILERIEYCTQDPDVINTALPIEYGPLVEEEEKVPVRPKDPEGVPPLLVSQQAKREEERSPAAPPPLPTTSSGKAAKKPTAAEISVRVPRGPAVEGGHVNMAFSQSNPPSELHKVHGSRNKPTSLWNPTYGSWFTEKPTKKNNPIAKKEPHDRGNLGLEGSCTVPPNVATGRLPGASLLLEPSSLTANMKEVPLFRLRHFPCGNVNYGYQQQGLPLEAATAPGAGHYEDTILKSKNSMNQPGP
Sequence of Protein disulfide-isomerase (P07237 whole entry): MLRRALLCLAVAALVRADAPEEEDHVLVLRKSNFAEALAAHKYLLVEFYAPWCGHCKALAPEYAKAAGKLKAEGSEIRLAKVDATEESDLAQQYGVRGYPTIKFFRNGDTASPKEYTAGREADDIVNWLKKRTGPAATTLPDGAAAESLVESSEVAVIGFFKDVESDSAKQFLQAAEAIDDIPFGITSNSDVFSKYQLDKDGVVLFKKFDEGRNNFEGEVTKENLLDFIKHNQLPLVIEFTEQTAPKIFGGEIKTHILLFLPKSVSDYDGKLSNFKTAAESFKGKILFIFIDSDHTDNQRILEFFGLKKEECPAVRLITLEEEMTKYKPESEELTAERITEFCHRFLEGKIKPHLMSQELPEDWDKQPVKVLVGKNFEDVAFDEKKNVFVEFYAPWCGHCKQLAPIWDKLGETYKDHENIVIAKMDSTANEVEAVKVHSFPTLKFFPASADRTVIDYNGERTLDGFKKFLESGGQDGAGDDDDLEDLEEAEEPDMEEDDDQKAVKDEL
Sequence of Beta-galactosidase (Q8VNN2 whole entry): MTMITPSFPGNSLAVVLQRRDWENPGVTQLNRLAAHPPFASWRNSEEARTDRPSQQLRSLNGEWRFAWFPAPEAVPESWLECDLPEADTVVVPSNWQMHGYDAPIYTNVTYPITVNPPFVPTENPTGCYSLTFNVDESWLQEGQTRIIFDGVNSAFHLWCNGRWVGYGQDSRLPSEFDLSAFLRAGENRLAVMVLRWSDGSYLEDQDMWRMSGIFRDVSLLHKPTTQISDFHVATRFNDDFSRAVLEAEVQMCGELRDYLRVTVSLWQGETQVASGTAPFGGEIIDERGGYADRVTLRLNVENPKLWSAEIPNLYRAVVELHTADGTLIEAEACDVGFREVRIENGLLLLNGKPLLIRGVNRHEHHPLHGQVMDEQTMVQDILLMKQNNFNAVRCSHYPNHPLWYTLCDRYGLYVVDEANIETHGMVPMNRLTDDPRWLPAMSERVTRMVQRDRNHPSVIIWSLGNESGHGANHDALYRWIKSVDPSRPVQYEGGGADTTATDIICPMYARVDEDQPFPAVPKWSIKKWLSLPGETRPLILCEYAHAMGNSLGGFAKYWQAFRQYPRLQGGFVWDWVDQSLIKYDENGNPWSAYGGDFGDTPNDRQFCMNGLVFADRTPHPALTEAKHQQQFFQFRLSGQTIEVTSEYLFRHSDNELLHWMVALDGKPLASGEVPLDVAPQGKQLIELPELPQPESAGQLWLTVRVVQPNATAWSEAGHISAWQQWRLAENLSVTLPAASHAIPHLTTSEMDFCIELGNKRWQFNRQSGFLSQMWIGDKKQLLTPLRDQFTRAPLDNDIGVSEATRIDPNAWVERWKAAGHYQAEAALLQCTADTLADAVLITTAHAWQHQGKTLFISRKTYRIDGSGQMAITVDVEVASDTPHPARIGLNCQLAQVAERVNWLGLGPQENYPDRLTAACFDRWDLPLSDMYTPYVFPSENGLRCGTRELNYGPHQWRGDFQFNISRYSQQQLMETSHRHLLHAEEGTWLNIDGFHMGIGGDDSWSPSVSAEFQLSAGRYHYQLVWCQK

Regarding `CN(C)CCc1ccc(Nc2nccc(-c3c(-c4cccc(C(O)CO)c4)nc4ccccn34)n2)cc1` (stereo unspecified), the Ki in [1] and in [2] was 3.16 µM (active) in each case.

As for `COc1ccc(C2CC(c3cccs3)=NN2c2nc(C)c(C(C)=O)s2)cc1OC` (stereo unspecified), the EC50 is 111 µM (active) in [3]; 7.9 µM (active) and 4.8 µM (active) in assay [4].

Consider `Cn1cc(C(CC(=O)c2ccc(C(C)(C)C)cc2)C(=O)O)c2ccccc21` (stereo unspecified), for which, in assay [5], the IC50 is 90.5 µM (active).

`O=C(c1cc(-c2ccccc2)on1)N(C1CCCCC1)C1CCCC1`: the EC50 in [6] and in assay [7] was > 50 µM (inactive) each time.

`Cc1nn2c(NCc3ccccn3)cc(C(C)C)nc2c1-c1ccccc1`: the CC50 in assay [8] was 11.1 µM (active); in [9] it was 4.39 µM (active); in assay [10], 9.09 µM (active); in assay [13] it was 6.6 µM (active); in assay [14], 15.8 µM (active); in [15], 24.5 µM (active). For the same molecule, the CC50 in assay [16] was 0.46 µM (active). In addition, the EC50 is 5.57 µM (active) in assay [11], 6.95 µM (active) at Streptokinase A and 23.2 µM (active) in the assay on Streptococcus. The IC50 is > 66.6 µM (inactive) in assay [12], 1.51 µM (active) in the assay “cells” and > 66.6 µM (inactive) on Beta-galactosidase.

As to `Cc1noc(C)c1S(=O)(=O)Nc1ccc2c(c1)CC(=O)N([C@H](C)CO)C[C@H](C)[C@@H](CN(C)S(=O)(=O)c1ccc(F)cc1)O2`, in assay [17], the AC50 was 19.5 µM (active).
